# Entries after “also recorded” stand apart in the source; their conditions may differ.
# Test system: α-hemolysin gene expression
# Assay: not given
# Assay type: cell-based, Staphylococcus aureus
# Details: not given
row,SMILES,α-hemolysin gene expression
1,COc1cc(C(=O)N/N=C/c2cccc3ccccc23)ccc1O [V],inhibit
2,CCc1cc(C(=O)COc2ccccc2)c(O)cc1O [VI],inhibit
3,O=C(O)c1ccc(-c2ccc(O)c(F)c2)cc1 [VII],inhibit
4,O=C(O)c1ccc(-c2ccc(F)cc2)cc1 [XVI],inhibit
5,"O=C(O)c1cc(-c2ccc(F)cc2F)ccc1O [X, diflunisal, reference compound]",inhibit
6,O=C(O)c1c(O)c(O)cc2ccccc12 [II],inhibit
7,O=C(O)c1cccc(-c2ccccc2)c1O [XV],inhibit

# Test system: phenol-soluble modulin-a (psma) gene expression
# Assay: phenol-soluble modulin-a (psma) gene expression in MRSA strain USA300 (FIG. 4)
# Assay type: cell-based, Staphylococcus aureus
# Details: not given
row,SMILES,phenol-soluble modulin-a (psma) gene expression
1,COc1cc(C(=O)N/N=C/c2cccc3ccccc23)ccc1O [V],inhibit
2,O=C(O)c1ccc(-c2ccc(O)c(F)c2)cc1 [VII],inhibit
3,O=C(O)c1ccc(-c2ccc(F)cc2)cc1 [XVI],inhibit
4,"O=C(O)c1cc(-c2ccc(F)cc2F)ccc1O [X, diflunisal, reference compound]",inhibit
5,O=C(O)c1c(O)c(O)cc2ccccc12 [II],inhibit
6,O=C(O)c1cccc(-c2ccccc2)c1O [XV],inhibit

# Test system: AgrA gene expression
# Assay: AgrA gene expression in MRSA strain USA300 (FIG. 5)
# Assay type: cell-based, Staphylococcus aureus
# Details: not given
row,SMILES,AgrA gene expression
1,COc1cc(C(=O)N/N=C/c2cccc3ccccc23)ccc1O [V],inhibit
2,CCc1cc(C(=O)COc2ccccc2)c(O)cc1O [VI],inhibit
3,O=C(O)c1ccc(-c2ccc(O)c(F)c2)cc1 [VII],inhibit
4,O=C(O)c1ccc(-c2ccc(F)cc2)cc1 [XVI],inhibit
5,"O=C(O)c1cc(-c2ccc(F)cc2F)ccc1O [X, diflunisal, reference compound]",inhibit
6,O=C(O)c1c(O)c(O)cc2ccccc12 [II],inhibit
7,O=C(O)c1cccc(-c2ccccc2)c1O [XV],inhibit

# Test system: AgrC gene expression
# Assay: AgrC gene expression in MRSA strain USA300 (FIG. 6)
# Assay type: cell-based, Staphylococcus aureus
# Details: not given
row,SMILES,AgrC gene expression
1,COc1cc(C(=O)N/N=C/c2cccc3ccccc23)ccc1O [V],inhibit
2,O=C(O)c1ccc(-c2ccc(O)c(F)c2)cc1 [VII],inhibit
3,O=C(O)c1ccc(-c2ccc(F)cc2)cc1 [XVI],inhibit
4,"O=C(O)c1cc(-c2ccc(F)cc2F)ccc1O [X, diflunisal, reference compound]",inhibit
5,O=C(O)c1c(O)c(O)cc2ccccc12 [II],inhibit
6,O=C(O)c1cccc(-c2ccccc2)c1O [XV],inhibit

# Test system: RNAIII gene expression
# Assay: RNAIII gene expression in MRSA strain USA300 (FIG. 7)
# Assay type: cell-based, Staphylococcus aureus
# Details: not given
row,SMILES,RNAIII gene expression
1,COc1cc(C(=O)N/N=C/c2cccc3ccccc23)ccc1O [V],inhibit
2,O=C(O)c1ccc(-c2ccc(O)c(F)c2)cc1 [VII],inhibit
3,O=C(O)c1ccc(-c2ccc(F)cc2)cc1 [XVI],inhibit
4,"O=C(O)c1cc(-c2ccc(F)cc2F)ccc1O [X, diflunisal, reference compound]",inhibit
5,O=C(O)c1c(O)c(O)cc2ccccc12 [II],inhibit
6,O=C(O)c1cccc(-c2ccccc2)c1O [XV],inhibit

# Test system: Streptococcus pyogenes
# Assay: not given
# Details: not given
row,SMILES,rabbit blood hemolysis inhibition in Streptococcus pyogenes (in words)
1,COc1cc(C(=O)N/N=C/c2cccc3ccccc23)ccc1O [V],active
2,CCc1cc(C(=O)COc2ccccc2)c(O)cc1O [VI],active
3,O=C(O)c1ccc(-c2ccc(O)c(F)c2)cc1 [VII],active
4,O=C(O)c1ccc(-c2ccc(F)cc2)cc1 [XVI],active
5,"O=C(O)c1cc(-c2ccc(F)cc2F)ccc1O [X, diflunisal, reference compound]",active
6,COc1cc(O)c(C(=O)c2ccccc2)cc1S(=O)(=O)O [IX],active
7,O=C(O)c1c(O)c(O)cc2ccccc12 [II],active
8,O=C(O)c1cccc(-c2ccccc2)c1O [XV],active

# Test system: MRSA strain USA300
# Assay: microbe, parasite or virus in culture
# Details: Staphylococcus aureus, 6 h, read-out: ELISA α-hemolysin inhibition 1 μg/mL
row,SMILES,hemolysis at 1 µg/mL [%]
1,COc1cc(C(=O)N/N=C/c2cccc3ccccc23)ccc1O [V],23 ± 1.3
2,CCc1cc(C(=O)COc2ccccc2)c(O)cc1O [VI],55.2 ± 5.8
3,O=C(O)c1ccc(-c2ccc(O)c(F)c2)cc1 [VII],31.3 ± 9
4,O=C(O)c1ccc(-c2ccc(F)cc2)cc1 [XVI],0
5,O=C(O)c1c(F)c(F)cc2ccccc12 [III],20.8 ± 3.5
6,"O=C(O)c1cc(-c2ccc(F)cc2F)ccc1O [X, diflunisal, reference compound]",33 ± 3.6
7,O=C1Nc2cccc3cc(O)cc1c23 [I],28 ± 4.4
8,O=C(O)c1c(O)c(O)cc2ccccc12 [II],21.3 ± 5.2
9,O=C(/C=C/c1ccc2c(c1)OCO2)c1ccccc(=O)c1O [IV],40.2 ± 5.2
10,O=C(O)c1cccc(-c2ccccc2)c1O [XV],49.4 ± 4.6

# Same assay, conditions: Staphylococcus aureus, 6 h, read-out: ELISA α-hemolysin inhibition 10 μg/mL
row,SMILES,hemolysis at 10 µg/mL [%]
1,COc1cc(C(=O)N/N=C/c2cccc3ccccc23)ccc1O [V],88.4 ± 1.5
2,CCc1cc(C(=O)COc2ccccc2)c(O)cc1O [VI],76.3 ± 11.2
3,O=C(O)c1ccc(-c2ccc(O)c(F)c2)cc1 [VII],61 ± 14.8
4,O=C(O)c1ccc(-c2ccc(F)cc2)cc1 [XVI],68.8 ± 11.3
5,O=C(c1ccccc1)c1ccc(O)cc1O [XIV],26.7
6,O=C(O)c1c(F)c(F)cc2ccccc12 [III],28.3 ± 3.4
7,O=C(O)c1cc(-c2cccc(F)c2)ccc1O [XIII],35.6 ± 12.5
8,O=C(O)c1ccc2cc(F)ccc2c1 [VIII],56.3 ± 1.7
9,"O=C(O)c1cc(-c2ccc(F)cc2F)ccc1O [X, diflunisal, reference compound]",62.3 ± 1.8
10,O=C(O)c1ccc(Oc2ccc(Cl)cc2)cc1 [XI],36.3 ± 8.2
11,COc1cc(O)c(C(=O)c2ccccc2)cc1S(=O)(=O)O [IX],41.9 ± 8.2
12,O=C1Nc2cccc3cc(O)cc1c23 [I],65 ± 2.5
13,O=C(O)c1c(O)c(O)cc2ccccc12 [II],76 ± 1.2
14,O=C(/C=C/c1ccc2c(c1)OCO2)c1ccccc(=O)c1O [IV],73.6 ± 2.2
15,O=C(O)c1ccc(Oc2ccc(F)cc2)cc1 [XII],29.1 ± 11
16,O=C(O)c1cccc(-c2ccccc2)c1O [XV],53 ± 5.9

# Test system: hla transcription
# Assay: hla transcription by qRT-PCR (FIG. 9A)
# Details: 50 μg/mL; 6 h; versus DMSO
# Description: (§1) The effect of the compounds VII, X, XII, and XV on the transcription of hla and RNAIII was measured by qRT-PCR. S. aureus USA300 was incubated at 37° C. for 6 h in the presence of 0, 10, or 50 μg/ml of the compounds. The cultures were harvested, and total RNA was isolated using the RiboPure—bacterial RNA isolation kit (Ambion) with additional DNase I treatment. RNA yield and purity were assessed by measuring the ratio of UV absorbance at 260 and 280 nm, and the integrity of the RNA was assessed on a 1% denaturing agarose gel. High integrity RNA had two clear bands without smearing, indicating no fragmentation of 23S and 16S rRNA.
# (§2) Real-time RT-PCR reactions were conducted using a SYBR—green mix (Bio-Rad). The data were analyzed using the ΔΔC2 and are represented as log2 of the treated sample/control sample (DMSO only).
row,SMILES,reduction of hla expression [fold]
1,"O=C(O)c1cc(-c2ccc(F)cc2F)ccc1O [X, diflunisal, reference compound]",~3000

# Same assay, conditions: 10 and 50 μg/ml; 37° C., 6 h; versus DMSO
row,SMILES,"transcription of hla (qRT-PCR, in words)"
1,O=C(O)c1ccc(-c2ccc(O)c(F)c2)cc1 [VII],reduced
2,O=C(O)c1ccc(-c2ccc(F)cc2)cc1 [XVI],reduced
3,"O=C(O)c1cc(-c2ccc(F)cc2F)ccc1O [X, diflunisal, reference compound]",reduced
4,O=C(O)c1ccc(Oc2ccc(F)cc2)cc1 [XII],reduced

# Test system: RNAIII transcription
# Assay: RNAIII transcription by qRT-PCR (FIG. 9B)
# Details: 10 or 50 μg/ml; 37° C., 6 h; versus DMSO
# Description: as §1, §2
row,SMILES,"RNAIII expression (qRT-PCR, in words)"
1,"O=C(O)c1cc(-c2ccc(F)cc2F)ccc1O [X, diflunisal, reference compound]",significant reduction; also recorded: reduced
